Data reported in patent US4461831A, “Antitumor agents albacarcins V and M” (Bristol-Myers Company, priority 1982, dated 1984).
Values after ≈ are worked out from the molar mass of the structure shown. Where two headings read alike, the source gives them in different places.

Assays:
[1] = tested on: gram-positive bacteria; experiment: antibacterial activity, agar dilution, gram-positive summary; type: cell-based; conditions: summary of Table IV
Method: (§1) The antibacterial activities of albacarcin V and M were determined by a serial two-fold agar dilution method.

[2] = tested on: P388 leukemia; type: in vivo, CDF1 female mice; conditions: for Effect MST % T/C / MST (median survival time): 3X, Days 1,4,7; for host survival in the P388 leukemia screening test (in words): mouse, in vivo
Description: Details of the methods used in this procedure have been described in Cancer Chemother. Rep. 3: 1-87 (Part 3), 1972.
Host CDF1 .female. mice
Treatment 3X, Days 1,4,7
Evaluation MST = median survival time
Effect % T/C = (MST treated/MST control) × 100
Criteria % T/C ≥ 125 considered significant antitumor activity.

[3] = tested on: Klebsiella pneumoniae; experiment: antibacterial activity, serial two-fold agar dilution method; type: cell-based; conditions: Strain No. 15130
Method: as §1

[4] = tested on: Proteus vulgaris; experiment: as above; type: cell-based; conditions: Strain No. 21559
Method: as §1

[5] = tested on: Streptococcus pneumoniae; experiment: as above; type: cell-based; conditions: Strain No. 9585
Method: as §1

[6] = tested on: Escherichia coli; experiment: as above; type: cell-based
Method: as §1

[7] = tested on: Streptococcus pyogenes; experiment: as above; type: cell-based; conditions: Strain No. 9604
Method: as §1

[8] = tested on: Staphylococcus aureus; experiment: as above; type: cell-based; conditions: for MIC: Staphylococcus aureus, read-out: Minimum Inhibitory Concentration
Method: as §1

[9] = tested on: Enterobacter cloacae; experiment: as above; type: cell-based; conditions: Strain No. 9659
Method: as §1

[10] = tested on: Pseudomonas aeruginosa; experiment: as above; type: cell-based; conditions: Strain No. 9843A
Method: as §1

[11] = tested on: Proteus mirabilis; experiment: as above; type: cell-based; conditions: Strain No. 9900
Method: as §1

[12] = tested on: Serratia marcescens; experiment: as above; type: cell-based; conditions: Strain No. 20019
Method: as §1

[13] = tested on: gram-negative bacteria; experiment: antibacterial activity, agar dilution, gram-negative summary; type: cell-based; conditions: at the highest dose tested
Method: as §1

[14] = tested on: Streptomyces albaduncus strain C38291; experiment: growth inhibition of producing strain by antibiotics; type: cell-based
Description: The growth of strain C38291 is inhibited by streptomycin or tetracycline, but not by benzylpenicillin, ampicillin or erythromycin. The sodium chloride tolerance is seen at 8% or less, but not at 10% or more. Melanin is not produced from L-3,4-dihydroxy phenylalanine (L-DOPA). Among eleven diagnostic sugars described in Bergey's Manual, 8th ed. (1974), only raffinose is not utilized by strain C38291. The physiological characteristics and utilization of carbohydrates are shown in Tables II and III, respectively.

[15] = reported in Antibiotiki 22: 963-967 at 967, 1977; cited from earlier work

COc1cc2c(oc(=O)c3cc(C)cc(OC)c32)c2c(C3OC(C)C(O)C(C)(O)C3O)ccc(O)c12 (stereo not drawn) [Albacarcin M, albacarcin M]
gram-positive antibacterial activity (in words) [1]: moderate gram-positive antibacterial activity | Effect MST % T/C ([2]; 8 mg/kg/inj): 113 % T/C | MST (median survival time) ([2]; 8 mg/kg/inj): 9.0 days | Effect MST % T/C ([2]; 16 mg/kg/inj): 119 % T/C | MST (median survival time) ([2]; 16 mg/kg/inj): 9.5 days | Effect MST % T/C ([2]; 32 mg/kg/inj): 150 % T/C | MST (median survival time) ([2]; 32 mg/kg/inj): 12.0 days | Effect MST % T/C ([2]; 64 mg/kg/inj): 150 % T/C | MST (median survival time) ([2]; 64 mg/kg/inj): 12.0 days | Effect MST % T/C ([2]; 128 mg/kg/inj): 175 % T/C | MST (median survival time) ([2]; 128 mg/kg/inj): 14.0 days | Effect MST % T/C ([2]; 256 mg/kg/inj): 200 % T/C | MST (median survival time) ([2]; 256 mg/kg/inj): 16.0 days | host survival in the P388 leukemia screening test (in words) [2]: significantly prolong host survival | MIC ([3]; Klebsiella pneumoniae, read-out: Minimum Inhibitory Concentration): > 50 µg/mL | MIC ([4]; Proteus vulgaris, read-out: Minimum Inhibitory Concentration): > 50 µg/mL | MIC ([5]; Streptococcus pneumoniae, read-out: Minimum Inhibitory Concentration): 0.4 µg/mL (≈ 0.806 µM) | MIC ([6]; Escherichia coli, Strain No. 15119, read-out: Minimum Inhibitory Concentration): > 50 µg/mL | Minimum Inhibitory Concentration ([6]; Strain No. 20341-1): > 50 µg/mL | MIC ([7]; Streptococcus pyogenes, read-out: Minimum Inhibitory Concentration): 1.6 µg/mL (≈ 3.22 µM) | MIC ([8]; Strain No. 9497): 0.8 µg/mL (≈ 1.61 µM) | MIC ([8]; Strain No. 9537): 3.2 µg/mL (≈ 6.44 µM) | MIC ([8]; Strain No. 9606): 3.2 µg/mL (≈ 6.44 µM) | MIC ([8]; Strain No. 20688): 1.6 µg/mL (≈ 3.22 µM) | MIC ([9]; Enterobacter cloacae, read-out: Minimum Inhibitory Concentration): > 50 µg/mL | MIC ([10]; Pseudomonas aeruginosa, read-out: Minimum Inhibitory Concentration): > 50 µg/mL | MIC ([11]; Proteus mirabilis, read-out: Minimum Inhibitory Concentration): > 50 µg/mL | MIC ([12]; Serratia marcescens, read-out: Minimum Inhibitory Concentration): > 50 µg/mL | gram-negative activity (in words) [13]: Little or no gram-negative activity

C=Cc1cc(OC)c2c(c1)c(=O)oc1c2cc(OC)c2c(O)ccc(C3OC(C)C(O)C(C)(O)C3O)c21 (stereo not drawn) [Albacarcin V, albacarcin V]
antibacterial potency relative to albacarcin M [1]: more potent than albacarcin M | gram-positive antibacterial activity (in words) [1]: moderate gram-positive antibacterial activity | Effect MST % T/C ([2]; 8 mg/kg/inj): 113 % T/C | MST (median survival time) ([2]; 8 mg/kg/inj): 9.0 days | Effect MST % T/C ([2]; 16 mg/kg/inj): 131 % T/C | MST (median survival time) ([2]; 16 mg/kg/inj): 10.5 days | Effect MST % T/C ([2]; 32 mg/kg/inj): 150 % T/C | MST (median survival time) ([2]; 32 mg/kg/inj): 12.0 days | Effect MST % T/C ([2]; 64 mg/kg/inj): 194 % T/C | MST (median survival time) ([2]; 64 mg/kg/inj): 15.5 days | Effect MST % T/C ([2]; 128 mg/kg/inj): 200 % T/C | MST (median survival time) ([2]; 128 mg/kg/inj): 16.0 days | Effect MST % T/C ([2]; 256 mg/kg/inj): 100 % T/C | MST (median survival time) ([2]; 256 mg/kg/inj): 8.0 days | potency relative to albacarcin M in P388 test ([2]; comparing optimum doses (maximum T/C) and minimum effective dose (lowest dose giving T/C>125)): twice as potent as albacarcin M | host survival in the P388 leukemia screening test (in words) [2]: significantly prolong host survival | Minimum Inhibitory Concentration [3]: > 50 µg/mL | Minimum Inhibitory Concentration [4]: 3.2 µg/mL | Minimum Inhibitory Concentration [5]: 0.025 µg/mL | Minimum Inhibitory Concentration ([6]; Strain No. 15119): > 50 µg/mL | Minimum Inhibitory Concentration ([6]; Strain No. 20341-1): > 50 µg/mL | Minimum Inhibitory Concentration [7]: 0.05 µg/mL | Minimum Inhibitory Concentration ([8]; Strain No. 9497): 0.0125 µg/mL | Minimum Inhibitory Concentration ([8]; Strain No. 9537): 0.0125 µg/mL | Minimum Inhibitory Concentration ([8]; Strain No. 9606): 0.4 µg/mL | Minimum Inhibitory Concentration ([8]; Strain No. 20688): 0.1 µg/mL | Minimum Inhibitory Concentration [9]: > 50 µg/mL | Minimum Inhibitory Concentration [10]: > 50 µg/mL | Minimum Inhibitory Concentration [11]: > 50 µg/mL | Minimum Inhibitory Concentration [12]: > 50 µg/mL | gram-negative activity (in words) [13]: Little or no gram-negative activity

CC1(C)S[C@@H]2[C@H](NC(=O)[C@H](N)c3ccccc3)C(=O)N2[C@H]1C(=O)O [ampicillin]
growth of strain C38291 inhibited or not [14]: not

CC1(C)S[C@@H]2[C@H](NC(=O)Cc3ccccc3)C(=O)N2[C@H]1C(=O)O [benzylpenicillin]
growth of strain C38291 inhibited or not [14]: not

CC[C@H]1OC(=O)[C@H](C)[C@@H](O[C@H]2C[C@@](C)(OC)[C@@H](O)[C@H](C)O2)[C@H](C)[C@@H](O[C@@H]2O[C@H](C)C[C@H](N(C)C)[C@H]2O)[C@](C)(O)C[C@@H](C)C(=O)[C@H](C)[C@@H](O)[C@]1(C)O [erythromycin]
growth of strain C38291 inhibited or not [14]: not

[H]/N=C(/N)N[C@H]1[C@H](O)[C@@H](O)[C@H](O[C@@H]2O[C@@H](C)[C@](O)(C=O)[C@H]2O[C@@H]2O[C@@H](CO)[C@H](O)[C@@H](O)[C@@H]2NC)[C@@H](N/C(N)=N\[H])[C@@H]1O [streptomycin]
growth of strain C38291 inhibited or not [14]: inhibited

CN(C)[C@@H]1C(=O)C(C(N)=O)=C(O)[C@@]2(O)C(=O)C3=C(O)c4c(O)cccc4[C@@](C)(O)[C@H]3C[C@@H]12 [tetracycline]
growth of strain C38291 inhibited or not [14]: inhibited

virenomycin
antitumor activity (in words) [15]: comparatively low antitumor activity and narrow spectrum
